Source: PubChem BioAssay AID2060501 (Molecular Pharmacology Branch, DTP, NCI, 2025)

Test system: 282377-053-R-J1-PDC complex spheroids, viability
Assay: Anticancer human tumor 282377-053-R-J1-PDC patient-derived colon adenocarcinoma cell line growth inhibition [GQUAD]
Settings: for IC50: curve of first compound; for viability, T/C: stronger effect = lower value
In short: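 Tumor cells were grown as complex spheroids with HUVEC endothelial cells and mesenchymal stem cells as stroma. G-quadruplex stabilizers were combined with targeted agents over half-log dilutions from near the clinical Cmax, or from 10 microM.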

[1] = second compound 0.0316 µM, first compound 0.0316 µM
[2] = second compound 0.0316 µM, first compound 0.1 µM
[3] = second compound 0.0316 µM, first compound 0.316 µM
[4] = second compound 0.0316 µM, first compound 1 µM
[5] = second compound 0.0316 µM, first compound 3.16 µM
[6] = second compound 0.0316 µM, first compound 10 µM
[7] = second compound 0.1 µM, first compound 0.0316 µM
[8] = second compound 0.1 µM, first compound 0.1 µM
[9] = second compound 0.1 µM, first compound 0.316 µM
[10] = second compound 0.1 µM, first compound 1 µM
[11] = second compound 0.1 µM, first compound 3.16 µM
[12] = second compound 0.1 µM, first compound 10 µM
[13] = second compound 0.316 µM, first compound 0.0316 µM
[14] = second compound 0.316 µM, first compound 0.1 µM
[15] = second compound 0.316 µM, first compound 0.316 µM
[16] = second compound 0.316 µM, first compound 1 µM
[17] = second compound 0.316 µM, first compound 3.16 µM
[18] = second compound 0.316 µM, first compound 10 µM
[19] = second compound 1 µM, first compound 0.0316 µM
[20] = second compound 1 µM, first compound 0.1 µM
[21] = second compound 1 µM, first compound 0.316 µM
[22] = second compound 1 µM, first compound 1 µM
[23] = second compound 1 µM, first compound 3.16 µM
[24] = second compound 1 µM, first compound 10 µM
[25] = second compound 3.16 µM, first compound 0.0316 µM
[26] = second compound 3.16 µM, first compound 0.1 µM
[27] = second compound 3.16 µM, first compound 0.316 µM
[28] = second compound 3.16 µM, first compound 1 µM
[29] = second compound 3.16 µM, first compound 3.16 µM
[30] = second compound 3.16 µM, first compound 10 µM
[31] = second compound 10 µM, first compound 0.0316 µM
[32] = second compound 10 µM, first compound 0.1 µM
[33] = second compound 10 µM, first compound 0.316 µM
[34] = second compound 10 µM, first compound 1 µM
[35] = second compound 10 µM, first compound 3.16 µM
[36] = second compound 10 µM, first compound 10 µM
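Further: spheroids exposed to compounds for 7 days before readout.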
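Wherever viability, T/C is given: percent of vehicle DMSO control viability with 100% = untreated-like growth.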

## Cc1cccc(N(C)C(=O)C2C(O)CCN2c2nc(C)cc(C(F)(F)F)c2C#N)c1 (stereo not drawn) + CN(C)c1ccc(Nc2c3ccc(NC(=O)CCN4CCCC4)cc3nc3cc(NC(=O)CCN4CCCC4)ccc23)cc1
Second compound 0.0316 µM
  IC50: > 10000 nM
Second compound 0.1 µM
  IC50: > 10000 nM
Second compound 0.316 µM
  IC50: > 10000 nM
Second compound 1 µM
  IC50: > 10000 nM
Second compound 3.16 µM
  IC50: > 10000 nM
Second compound 10 µM
  IC50: > 10000 nM
[1]
  viability, T/C: 110%
[2]
  viability, T/C: 104%
[3]
  viability, T/C: 93.3%
[4]
  viability, T/C: 98.7%
[5]
  viability, T/C: 78.2%
[6]
  viability, T/C: 104%
[7]
  viability, T/C: 105%
[8]
  viability, T/C: 96.9%
[9]
  viability, T/C: 103%
[10]
  viability, T/C: 93.8%
[11]
  viability, T/C: 96.3%
[12]
  viability, T/C: 82.3%
[13]
  viability, T/C: 101%
[14]
  viability, T/C: 103%
[15]
  viability, T/C: 84.5%
[16]
  viability, T/C: 106%
[17]
  viability, T/C: 90.2%
[18]
  viability, T/C: 63.8%
[19]
  viability, T/C: 100%
[20]
  viability, T/C: 87.5%
[21]
  viability, T/C: 90.5%
[22]
  viability, T/C: 90.1%
[23]
  viability, T/C: 94.6%
[24]
  viability, T/C: 88.1%
[25]
  viability, T/C: 94.2%
[26]
  viability, T/C: 96.8%
[27]
  viability, T/C: 96.7%
[28]
  viability, T/C: 94.5%
[29]
  viability, T/C: 128%
[30]
  viability, T/C: 109%
[31]
  viability, T/C: 91.8%
[32]
  viability, T/C: 97%
[33]
  viability, T/C: 110%
[34]
  viability, T/C: 105%
[35]
  viability, T/C: 122%
[36]
  viability, T/C: 80%

## CC(C)(O)C1CCC(Nc2ccc3ncc(-c4cccc(C(F)(F)F)c4)n3n2)CC1 (stereo not drawn) + CN(C)c1ccc(Nc2c3ccc(NC(=O)CCN4CCCC4)cc3nc3cc(NC(=O)CCN4CCCC4)ccc23)cc1
Second compound 0.0316 µM
  IC50: 1800 nM
Second compound 0.1 µM
  IC50: 2150 nM
Second compound 0.316 µM
  IC50: 2000 nM
Second compound 1 µM
  IC50: 1750 nM
Second compound 3.16 µM
  IC50: 1650 nM
Second compound 10 µM
  IC50: 1430 nM
[1]
  viability, T/C: 121%
[2]
  viability, T/C: 100%
[3]
  viability, T/C: 74%
[4]
  viability, T/C: 76.4%
[5]
  viability, T/C: 21%
[6]
  viability, T/C: 29%
[7]
  viability, T/C: 123%
[8]
  viability, T/C: 85%
[9]
  viability, T/C: 76.7%
[10]
  viability, T/C: 87.4%
[11]
  viability, T/C: 22.7%
[12]
  viability, T/C: 39.8%
[13]
  viability, T/C: 106%
[14]
  viability, T/C: 86%
[15]
  viability, T/C: 64.9%
[16]
  viability, T/C: 86.5%
[17]
  viability, T/C: 22.2%
[18]
  viability, T/C: 29.8%
[19]
  viability, T/C: 94%
[20]
  viability, T/C: 75.4%
[21]
  viability, T/C: 85.6%
[22]
  viability, T/C: 73.1%
[23]
  viability, T/C: 19.6%
[24]
  viability, T/C: 31.3%
[25]
  viability, T/C: 100%
[26]
  viability, T/C: 97.2%
[27]
  viability, T/C: 105%
[28]
  viability, T/C: 71%
[29]
  viability, T/C: 23.4%
[30]
  viability, T/C: 21.8%
[31]
  viability, T/C: 97.3%
[32]
  viability, T/C: 95.5%
[33]
  viability, T/C: 83.2%
[34]
  viability, T/C: 64.7%
[35]
  viability, T/C: 18.3%
[36]
  viability, T/C: 19.1%

## CC1COCCN1c1cc(C2(S(C)(=N)=O)CC2)nc(-c2ccnc3[nH]ccc23)n1 (stereo not drawn) + Cc1cnc(CNC(=O)c2c(=O)c3ccc(N4CCCN(C)CC4)nc3n3c2sc2ccccc23)cn1
Second compound 0.0316 µM
  IC50: > 10000 nM
Second compound 0.1 µM
  IC50: 4510 nM
Second compound 0.316 µM
  IC50: 5630 nM
Second compound 1 µM
  IC50: 3780 nM
Second compound 3.16 µM
  IC50: 3520 nM
Second compound 10 µM
  IC50: < 31.6 nM
[1]
  viability, T/C: 94.2%
[2]
  viability, T/C: 78.7%
[3]
  viability, T/C: 96.2%
[4]
  viability, T/C: 89.1%
[5]
  viability, T/C: 61.1%
[6]
  viability, T/C: 50.6%
[7]
  viability, T/C: 99.5%
[8]
  viability, T/C: 115%
[9]
  viability, T/C: 94.4%
[10]
  viability, T/C: 76.2%
[11]
  viability, T/C: 59.1%
[12]
  viability, T/C: 35.4%
[13]
  viability, T/C: 83.2%
[14]
  viability, T/C: 92.2%
[15]
  viability, T/C: 97.1%
[16]
  viability, T/C: 81%
[17]
  viability, T/C: 64.3%
[18]
  viability, T/C: 36.3%
[19]
  viability, T/C: 68.4%
[20]
  viability, T/C: 79.2%
[21]
  viability, T/C: 70.9%
[22]
  viability, T/C: 61%
[23]
  viability, T/C: 55.6%
[24]
  viability, T/C: 30%
[25]
  viability, T/C: 49.1%
[26]
  viability, T/C: 56.1%
[27]
  viability, T/C: 68.5%
[28]
  viability, T/C: 50.1%
[29]
  viability, T/C: 52.2%
[30]
  viability, T/C: 34.6%
[31]
  viability, T/C: 42.1%
[32]
  viability, T/C: 52%
[33]
  viability, T/C: 54.5%
[34]
  viability, T/C: 43.9%
[35]
  viability, T/C: 43.1%
[36]
  viability, T/C: 29.1%

## CCCS(=O)(=O)Nc1ccc(F)c(C(=O)c2c[nH]c3ncc(-c4ccc(Cl)cc4)cc23)c1F + Cc1cnc(CNC(=O)c2c(=O)c3ccc(N4CCCN(C)CC4)nc3n3c2sc2ccccc23)cn1
Second compound 0.0316 µM
  IC50: 2280 nM
Second compound 0.1 µM
  IC50: 1480 nM
Second compound 0.316 µM
  IC50: 393 nM
Second compound 1 µM
  IC50: 34.9 nM
Second compound 3.16 µM
  IC50: < 31.6 nM
Second compound 10 µM
  IC50: < 31.6 nM
[1]
  viability, T/C: 89.5%
[2]
  viability, T/C: 53.1%
[3]
  viability, T/C: 72%
[4]
  viability, T/C: 52.7%
[5]
  viability, T/C: 54.9%
[6]
  viability, T/C: 11.8%
[7]
  viability, T/C: 77.5%
[8]
  viability, T/C: 63.9%
[9]
  viability, T/C: 56.6%
[10]
  viability, T/C: 55.7%
[11]
  viability, T/C: 45.4%
[12]
  viability, T/C: 11.6%
[13]
  viability, T/C: 64.5%
[14]
  viability, T/C: 57%
[15]
  viability, T/C: 46.9%
[16]
  viability, T/C: 39.5%
[17]
  viability, T/C: 41.4%
[18]
  viability, T/C: 11.3%
[19]
  viability, T/C: 52.6%
[20]
  viability, T/C: 44.6%
[21]
  viability, T/C: 38.3%
[22]
  viability, T/C: 30.3%
[23]
  viability, T/C: 34.4%
[24]
  viability, T/C: 9.31%
[25]
  viability, T/C: 39.5%
[26]
  viability, T/C: 29.4%
[27]
  viability, T/C: 28.8%
[28]
  viability, T/C: 25.9%
[29]
  viability, T/C: 30.4%
[30]
  viability, T/C: 0.11%
[31]
  viability, T/C: 31.3%
[32]
  viability, T/C: 31.3%
[33]
  viability, T/C: 22.9%
[34]
  viability, T/C: 23.3%
[35]
  viability, T/C: 7.59%
[36]
  viability, T/C: 0.33%
